This is an account of results in patent US20150118311A1, “Highly Penetrative Nanocarriers for Treatment of CNS Disease” (priority 2012, published 2015).

pIC50: −log10 of the molar value. Where two headings read alike, the source gives them in different places.

One test concerns GS5 cells. The test is described as follows: GS5 cell proliferation/viability (MTT, AlamarBlue). It is filed as cell-based, human. Background: Alamar Blue is a resazurin reagent that responds to reducing activity.
In another test the test system is CD133+ cell population. Description: Flow cytometry of CD133+ cell population in BCSC culture. Type of test: cell-based, human. The note with it: 100 nM drug, 3 days after plating, DI treated culture. On the technique in general: Flow cytometry measures light scatter and fluorescence of single cells or particles in a stream.
The next test has as its system GS5-derived tumors. The test is described as follows: Survival of nude rats with intracranial GS5 (BCSC) xenografts after CED. It is filed as in vivo. Conditions: BCSC xenograft tumors in the rat, FIG. 1C.
The test system of the next test is U87MG-derived xenografts. Description: Survival of nude rats with intracranial U87MG xenografts after CED. Type of test: in vivo. The note with it: U87MG xenograft.
The next test relates to U87MG. Description: cells. The note with it: Homo sapiens, U-87 MG, read-out: IC50, growth of U87MG in vitro.
The next test relates to BCSCs. Type of test: cell-based, human.
Another test deals with BCSC sphere formation. Description: BCSC sphere formation.
Another test deals with BCSC line PS11. Description: Flow cytometry of CD133+ population in PS11. The note with it: 1 μM.
Where [1] appears, read: Homo sapiens, 72 h, GS5 cells, three days after treatment, read-out: IC50 of candidate drugs on GS5 cells.
The mark [2] stands for this setting: read-out: IC50 of candidate drugs on GS5 cells.
[3] abbreviates: Homo sapiens, 72 h, read-out: IC50 of candidate drugs on GS5 cells.
[4] abbreviates: GS5 cells, three days after treatment, read-out: IC50 of candidate drugs on GS5 cells.

Regarding `CC[C@H]1CN2CCc3cc(OC)c(OC)cc3[C@@H]2C[C@@H]1C[C@H]1NCCc2cc(OC)c(OC)cc21` [Emetine], the pIC50 in the test with GS5 cells (setting [1]) was 6.52. On to `O=S(=O)([O-])[O-].[Fe+2]` [Iron(II) sulfate heptahydrate], for which the pIC50 in the test on GS5 cells (setting [2]) was 4.49.

As to `CCN1/C(=C/C=C/C=C/c2sc3ccccc3[n+]2CC)Sc2ccccc21` [Dithiazanine iodide], the pIC50 is 6.52 in the test with GS5 cells (setting [1]) and 7.10 with GS5 cells (Homo sapiens, GS5, running text, read-out: IC50, inhibition of GS5 proliferation). In addition, in the test on CD133+ cell population, the “decrease of CD133+ cell population” value is 57%. In the test on GS5-derived tumors, this molecule registered a median survival of 177 days. Consider `Cc1ccc2ccc3ccc(C)nc3c2n1` [Neocuproine], for which the pIC50 in the test on GS5 cells (setting [1]) was 6.70. Consider `CC(=O)O[C@H]1C(=O)[C@@]2(C)[C@H]([C@H](OC(=O)c3ccccc3)[C@]3(O)C[C@H](OC(=O)[C@H](O)[C@@H](NC(=O)c4ccccc4)c4ccccc4)C(C)=C1C3(C)C)[C@]1(OC(C)=O)CO[C@@H]1C[C@@H]2O` [paclitaxel], for which the “survival benefit compared to no treatment” value with U87MG-derived xenografts (CED) is “failed to show a survival benefit”. Moreover, the median survival in the test on U87MG-derived xenografts (single CED infusion 7 days after inoculation) is recorded as 30 days. The pIC50 with U87MG was 6.77.

On to `CCC(=O)[O-].CCC(=O)[O-].[Ca+2]` [Calcium propionate], for which the pIC50 in the test with GS5 cells (setting [2]) was 4.53. Regarding `COc1ccc(C[C@H]2NC[C@H](O)[C@H]2OC(C)=O)cc1` [Anisomycin], the pIC50 in the test with GS5 cells (setting [2]) was 6.52. Also, in the test on BCSCs, the “performance on in vitro assays against BCSCs” value is reported as “performed well”. As for `CC1=C(C(=O)O)N2C(=O)[C@@H](NC(=O)[C@H](N)C3=CCC=CC3)[C@H]2SC1` [Cephradine], the pIC50 with GS5 cells (setting [1]) was 4.41. As for `CN(C)CCC(c1ccc(Cl)cc1)c1ccccn1` (stereo not shown) [Chlorpheniramine], the pIC50 in the test with GS5 cells (setting [1]) was 4.39. On the same count and under the same terms, the same measure for `CCN(CC)CCNc1ccc(CO)c2sc3ccccc3c(=O)c12` [Hycanthone]: 5.25; for `CCCCCCCCCCCCCCCCOP(=O)([O-])OCC[N+](C)(C)C` [Miltefosine]: 4.56; for `N=C(N)NCC(=O)O` [Glycocyamine]: 4.47.

Take `Nc1nc2nc[nH]c2c(=S)[nH]1` [Thioguanine]: the pIC50 with GS5 cells (setting [1]) was 5.34. Turning to `COc1ccc2c(c1)[nH]c1c(C)nccc12` [Harmine], the pIC50 in the test on GS5 cells (setting [3]) is 4.71.

Turning to `CC(C)C[C@H]1C(=O)N2CCC[C@H]2[C@]2(O)O[C@](NC(=O)[C@@H]3C=C4c5cccc6[nH]c(Br)c(c56)C[C@H]4N(C)C3)(C(C)C)C(=O)N12` [Bromocriptine], the pIC50 in the test with GS5 cells (setting [3]) is 5.04. Regarding `CC1=C2N=C(C=C3N=C(C(C)=C4[N-]C(C(CC(N)=O)C4(C)CCC(=O)NCC(C)OP(=O)([O-])OC4C(CO)OC(n5cnc6cc(C)c(C)cc65)C4O)C4(C)N=C1C(CCC(N)=O)C4(C)CC(N)=O)C(CCC(N)=O)C3(C)C)C(CCC(N)=O)C2(C)CC(N)=O.Cl.[Co+3].[OH-]` (stereo not shown) [Hydroxocobalamin hydrochloride], the pIC50 in the test on GS5 cells (setting [2]) was 4.49. `Nc1ccn([C@@H]2O[C@H](CO)[C@@H](O)[C@@H]2O)c(=O)n1` [Cytarabine]: in the test on GS5 cells (setting [1]), the pIC50 is 6.10. On to `C[C@@H]1O[C@@H](O[C@@H]2C=C3CC[C@@H]4[C@H](CC[C@]5(C)[C@@H](c6ccc(=O)oc6)CC[C@]45O)[C@@]3(C)CC2)[C@H](O)[C@H](O)[C@H]1O` [Proscillaridin A], for which the pIC50 in the test with GS5 cells (setting [2]) is 7.00. As for Acriflavine hydrochloride, the pIC50 in the test with GS5 cells (setting [4]) was 5.52. As for `S=C(S)N1CCCC1` [Ammonium pyrrolidinedithiocarbamate], in the test with GS5 cells (setting [4]), the pIC50 is 5.48. With `CN1CCC(Nc2ncc3ncnc(Nc4ccc(F)c(Cl)c4)c3n2)CC1` [Falnidamol], the pIC50 in the test with GS5 cells (setting [3]) is 4.66. `CCN(CC)CCCC(C)Nc1c2ccc(Cl)cc2nc2ccc(OC)cc12` (stereo not shown) [Quinacrine]: the pIC50 in the test with GS5 cells (setting [1]) was 5.57. Same read-out and setting: next, `C[C@H]1C[C@H]2[C@@H]3CCC4=CC(=O)C=C[C@]4(C)[C@@]3(F)[C@@H](O)C[C@]2(C)[C@@]1(O)C(=O)CO` [Betamethasone]: 4.59.

As for `C[C@H]1O[C@@H](O[C@H]2[C@@H](O)C[C@H](O[C@H]3[C@@H](O)C[C@H](O[C@H]4CC[C@@]5(C)[C@H](CC[C@@H]6[C@@H]5C[C@@H](O)[C@]5(C)[C@@H](C7=CC(=O)OC7)CC[C@]65O)C4)O[C@@H]3C)O[C@@H]2C)C[C@H](O)[C@@H]1O` [Digoxin], in the test on GS5 cells (setting [3]), the pIC50 is 6.52. The “effect on BCSC proliferation” value with BCSCs was “inhibited BCSC proliferation”. In the test on BCSCs, the “performance on in vitro assays against BCSCs” value is “performed well”. In addition, the “effect on BCSC sphere formation” value in the test on BCSC sphere formation (1 μM) and with BCSC sphere formation (5 μM) was “inhibited BCSC sphere formation” each time. Also, the “effect on CD133+ population” value with BCSC line PS11 was “decreased the CD133+ population”.

For `Sc1ncnc2nc[nH]c12` [6-Mercaptopurine monohydrate], the pIC50 in the test on GS5 cells (setting [3]) was 5.11.

Regarding `Nc1nc(Cl)nc2c1ncn2[C@H]1C[C@H](O)[C@@H](CO)O1` [Cladribine], the pIC50 in the test with GS5 cells (setting [1]) was 5.47.
